A value given as a limit tells only on which side of the number the result lay.

This note sets out measurements from US8957093B2, “N-biphenylmethylindole modulators of PPARG” (The Scripps Research Institute, priority 2011, dated 2015).

GST-PPARG-LBD, sequence (P37231 238-503): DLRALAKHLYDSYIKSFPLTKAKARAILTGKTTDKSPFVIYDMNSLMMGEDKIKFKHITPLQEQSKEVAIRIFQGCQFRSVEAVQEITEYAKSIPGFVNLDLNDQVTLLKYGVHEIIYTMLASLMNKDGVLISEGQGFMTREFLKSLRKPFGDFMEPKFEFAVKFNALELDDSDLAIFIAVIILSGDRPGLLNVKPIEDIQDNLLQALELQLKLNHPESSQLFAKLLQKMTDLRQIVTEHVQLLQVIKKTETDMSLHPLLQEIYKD

The target of the first experiment is GST-PPARG-LBD (Homo sapiens (Human), UniProt P37231). In words: Lanthascreen PPARG competitive binding assay (Invitrogen, TR-FRET). As to conditions: Lanthascreen PPARG competitive binding; inc = incomplete curve; NA = not active. Here is the method:
Lanthascreen PPARG Competitive Binding Assay (Invitrogen)
The assay was performed according to manufacturer protocol. A mixture of […], 5 nM Tb-GST-antibody, 5 nM Fluormone Pan-PPAR Green, and serial dilutions of the experimental compound, beginning at 10 μM downwards, was added to wells of black 384-well low-volume plates (Greiner) to a total volume of 18 μL. All dilutions were made in TR-FRET assay buffer C. DMSO at 2% final concentration was used as a no-ligand control. Experiment was performed in triplicate, and incubated for 2 hours in the dark prior to assay read in Perkin Elmer ViewLux ultra HTS microplate reader. FRET signal was measured by excitation at 340 nm and emission at 520 nm for fluorescein and 490 nm for terbium. Fold change over DMSO was calculated using GraphPad Prism Software (La Jolla, Calif.) by calculating 520 nm/490 nm ratio. Graphs were plotted as fold change of FRET signal for compound treatment over DMSO-only control.
`Cc1c(C)n(Cc2ccc(-c3ccccc3C#N)cc2)c2ccc(C(=O)N[C@@H](C)c3ccc(C(F)(F)F)cc3)cc12` [Example 277, (S)-1-((2′-cyano-[1,1′-biphenyl]-4-yl)methyl)-2,3-dimethyl-N-(1-(4-(trifluoromethyl)phenyl)ethyl)-1H-indole-5-carboxamide]: the “IC50 (nM) Lantha” value is recorded as “inc”.

Still in this experiment, the particulars now being: Lanthascreen PPARG competitive binding; inc = incomplete curve; NA = not active; read-out: IC50 (nM) Lantha.
The term IC50 denotes the concentration needed to halve the response being measured. `Cc1c(C)n(Cc2ccc(-c3ccccc3C(=O)O)cc2)c2ccc(C(=O)N[C@H](C)c3ccc(S(C)(=O)=O)cc3)cc12` [Example 276, (R)-4′-((2,3-dimethyl-5-(1-(4-(methylsulfonyl)phenyl)ethylcarbamoyl)-1H-indol-1-yl)methyl)biphenyl-2-carboxylic acid]: the IC50 was determined as 11 nM.
As to `Cc1c(C)n(Cc2ccc(-c3ccccc3C#N)cc2)c2ccc(C(=O)N[C@@H](C)c3ccc(OC(C)C)cc3)cc12` [Example 278, (S)-1-((2′-cyano-[1,1′-biphenyl]-4-yl)methyl)-N-(1-(4-isopropoxyphenyl)ethyl)-2,3-dimethyl-1H-indole-5-carboxamide], the IC50 came to 808 nM.

The experiment is the same for the next values; noted with them: Lanthascreen competitive binding; NA = not active; inc = incomplete curve.
For the molecule `Cc1c(C)n(Cc2ccc(-c3ccccc3C#N)cc2)c2ccc(C(=O)N[C@@H](C)c3ccc(C(C)(C)C)cc3)cc12` [Example 184, (S)—N-(1-(4-(tert-butyl)phenyl)ethyl)-1-((2′-cyano-[1,1′-biphenyl]-4-yl)methyl)-2,3-dimethyl-1H-indole-5-carboxamide], the “IC50 (nM) Lantha” value is given as “^2inc^”.
Regarding `Cc1c(C)n(Cc2ccc(-c3ccccc3C#N)cc2)c2ccc(C(=O)N[C@@H](C)c3cccc(C(C)(C)C)c3)cc12` [Example 185, (S)—N-(1-(3-(tert-butyl)phenyl)ethyl)-1-((2′-cyano-[1,1′-biphenyl]-4-yl)methyl)-2,3-dimethyl-1H-indole-5-carboxamide], the “IC50 (nM) Lantha” value is “inc”.
For `Cc1c(C)n(Cc2ccc(-c3ccccc3C#N)cc2)c2ccc(C(=O)N[C@@H](C)c3ccc(C(C)C)cc3)cc12` [Example 186, (S)-1-((2′-cyano-[1,1′-biphenyl]-4-yl)methyl)-N-(1-(4-isopropylphenyl)ethyl)-2,3-dimethyl-1H-indole-5-carboxamide], the “IC50 (nM) Lantha” value is recorded as “inc”.
Regarding `Cc1c(C)n(Cc2ccc(-c3ccccc3C#N)cc2)c2ccc(C(=O)N[C@@H](C)c3cccc(C(C)C)c3)cc12` [Example 242, (S)-1-((2′-cyano-[1,1′-biphenyl]-4-yl)methyl)-N-(1-(3-isopropylphenyl)ethyl)-2,3-dimethyl-1H-indole-5-carboxamide], the “IC50 (nM) Lantha” value was “inc”.

Still in this experiment, the particulars now being: Lanthascreen competitive binding; NA = not active; inc = incomplete curve; read-out: IC50 (nM) Lantha.
Turning to `COc1ccc(CNC(=O)c2ccc3c(c2)c(C)c(C)n3Cc2ccc(-c3ccccc3C(=O)O)cc2)cc1` [Example 104, 4′-((5-(4-methoxybenzylcarbamoyl)-2,3-dimethyl-1H-indol-1-yl)methyl)biphenyl-2-carboxylic acid], the IC50 worked out at 7 nM.
On to `COc1ccc(CNC(=O)c2ccc3c(c2)c(C)c(C)n3Cc2ccc(-c3ccccc3C(=O)O)cc2)cc1F` [Example 111, 4′-((5-(3-fluoro-4-methoxybenzylcarbamoyl)-2,3-dimethyl-1H-indol-1-yl)methyl)biphenyl-2-carboxylic acid], for which the IC50 came to 13 nM.
On to `Cc1c(C)n(Cc2ccc(-c3ccccc3C(=O)O)cc2)c2ccc(C(=O)NCc3cccc4ccccc34)cc12` [Example 115, 4′-((2,3-dimethyl-5-(naphthalen-1-ylmethylcarbamoyl)-1H-indol-1-yl)methyl)biphenyl-2-carboxylic acid], for which the IC50 is 64 nM.
As to `CCC(NC(=O)c1ccc2c(c1)c(C)c(C)n2Cc1ccccc1-c1cccc(C(=O)O)c1)c1ccccc1` (stereo not drawn) [Example 126, 2′-((2,3-Dimethyl-5-((1-phenylpropyl)carbamoyl)-1H-indol-1-yl)methyl)-[1,1′-biphenyl]-3-carboxylic acid], the IC50 was 99 nM.
As for `Cc1cn(Cc2ccc(-c3ccccc3C(=O)O)cc2)c2ccc(C(=O)N[C@@H](C)c3ccc(Br)cc3)cc12` [Example 132, (S)-4′-((5-((1-(4-Bromophenyl)ethyl)carbamoyl)-3-methyl-1H-indol-1-yl)methyl)-[1,1′-biphenyl]-2-carboxylic acid], the IC50 is 24 nM.
Take `COc1c(F)cccc1[C@H](C)NC(=O)c1ccc2c(c1)c(C)c(C)n2Cc1ccc(-c2ccccc2C(=O)O)cc1` [Example 177, (S)-4′-((5-((1-(3-fluoro-2-methoxyphenyl)ethyl)carbamoyl)-2,3-dimethyl-1H-indol-1-yl)methyl)-[1,1′-biphenyl]-2-carboxylic acid]: the 50% inhibitory concentration (IC50) was 21 nM.
Same read-out and setting: then `CC[C@H](NC(=O)c1ccc2c(ccn2Cc2ccccc2-c2ccc(C(=O)O)cc2)c1)c1ccccc1` [Example 189, (S)-2′-((5-((1-phenylpropyl)carbamoyl)-1H-indol-1-yl)methyl)-[1,1′-biphenyl]-4-carboxylic acid], with 100 nM.
`Cc1c(C)n(Cc2ccc(-c3ccccc3C(=O)O)cc2)c2ccc(C(=O)N[C@H](C)c3c(F)cncc3F)cc12` [Example 215, (R)-4′-((5-((1-(3,5-difluoropyridin-4-yl)ethyl)carbamoyl)-2,3-dimethyl-1H-indol-1-yl)methyl)-[1,1′-biphenyl]-2-carboxylic acid]: the IC50 stood at 309 nM.
Consider `Cc1c(C)n(Cc2ccc(-c3ccccc3S(=O)(=O)NC(C)(C)C)cc2)c2ccc(C(=O)N[C@@H](C)c3cccc(C(C)C)c3)cc12` [Example 246, (S)-1-((2′-(N-(tert-butyl)sulfamoyl)-[1,1′-biphenyl]-4-yl)methyl)-N-(1-(3-isopropylphenyl)ethyl)-2,3-dimethyl-1H-indole-5-carboxamide], for which the IC50 is > 1000 nM.
As for `Cc1c(C)n(Cc2ccc(-c3ccccc3S(N)(=O)=O)cc2)c2ccc(C(=O)N[C@@H](C)c3cccc(C(C)C)c3)cc12` [Example 247, (S)—N-(1-(3-isopropylphenyl)ethyl)-2,3-dimethyl-1-((2′-sulfamoyl-[1,1′-biphenyl]-4-yl)methyl)-1H-indole-5-carboxamide], the IC50 is > 1000 nM.
`CC(=O)NS(=O)(=O)c1ccccc1-c1ccc(Cn2c(C)c(C)c3cc(C(=O)N[C@@H](C)c4cccc(C(C)C)c4)ccc32)cc1` [Example 248, (S)-1-((2′-(N-acetylsulfamoyl)-[1,1′-biphenyl]-4-yl)methyl)-N-(1-(3-isopropylphenyl)ethyl)-2,3-dimethyl-1H-indole-5-carboxamide]: the IC50 was > 1000 nM.
Still for that read-out and setting: the result for `Cc1c(C)n(Cc2ccc(-c3ccccc3C(=O)O)cc2)c2ccc(C(=O)N[C@@H](C)c3ccccc3OC(F)(F)F)cc12` [Example 256, (S)-4′-((2,3-dimethyl-5-(1-(2-(trifluoromethoxy)phenyl)ethylcarbamoyl)-1H-indol-1-yl)methyl)biphenyl-2-carboxylic acid] reads 38 nM.
Turning to `Cc1c(C)n(Cc2ccc(-c3ccccc3C(=O)O)cc2)c2ccc(C(=O)N[C@@H](C)c3ccc(S(C)(=O)=O)cc3)cc12` [Example 258, (S)-4′-((2,3-dimethyl-5-(1-(4-(methylsulfonyl)phenyl)ethylcarbamoyl)-1H-indol-1-yl)methyl)biphenyl-2-carboxylic acid], the IC50 is 636 nM.
Turning to `Cc1c(C)n(Cc2ccc(-c3ccccc3C(=O)O)cc2)c2ccc(C(=O)N[C@@H](C)c3cc(Cl)ccn3)cc12` [Example 265, (S)-4′-((5-((1-(4-chloropyridin-2-yl)ethyl)carbamoyl)-2,3-dimethyl-1H-indol-1-yl)methyl)-[1,1′-biphenyl]-2-carboxylic acid], the IC50 was determined as 4 nM.
